{"source": "paper PMC12175907", "about": "(Science Advances, 2025)", "key": {"DIO GLP-1R KO mice": {"system": "DIO GLP-1R KO mice", "test": "chronic treatment, food intake and body weight, DIO GLP-1R KO mice", "assay_type": "in vivo, mouse", "conditions": "GIP-085 300 nmol/kg, semaglutide 3 nmol/kg or combo, sc daily, 16 days; n = 6 per group", "description": "(§1) DIO adult male C57BL/6 mice (Taconic) C57BL/6 (n = 23, weighing ~43 g at arrival), GLP-1R KO (germline knockout line: 11549, n = 24, weighing ~38 g at arrival), and GIPR KO mice (germline knockout line: 2886, n = 24, weighing ~35 g at arrival) were used. Upon arrival, mice were individually housed and continued to be fed ad libitum on high-fat/high-sugar diet (60% fat diet, 12492, Research Diets).\n(§2) GIPFA-085 (GIP-085), tirzepatide, and GLP-140 were designed and produced by Eli Lilly and Company. GIP-085, GLP-140, and semaglutide (Cayman Chemical) were dissolved in 40 mM tris-HCl buffer (pH 8) and 0.02% Tween 80. For the study in mice, all drugs were injected subcutaneously at a volume of 5 ml/kg of body weight. In rats, all drugs were injected intraperitoneally, at a volume of 1 ml/kg of body weight, except when noted. In shrews, all drugs were injected intraperitoneally at a volume of 10 ml/kg of body weight.\n(§3) C57BL/6 wild-type (n = 23), GLP-1R KO (n = 24), and GIPR KO mice (n = 24) received daily subcutaneous administration of GIP-085 (300 nmol/kg), semaglutide (3 nmol/kg), GIP-085/semaglutide combo, or vehicle for 16 days. Food intake and body weight were manually measured daily. […] Body composition of mice was determined using quantitative nuclear magnetic resonance analysis (ECHO MRI, 3-1 Composition Analyzer; Echo Medical Systems). […]"}, "DIO GIPR KO mice": {"system": "DIO GIPR KO mice", "test": "chronic treatment, food intake and body weight, DIO GIPR KO mice", "assay_type": "in vivo, mouse", "conditions": "inferred from GIPR KO DIO mice", "description": "as §1, §2, §3"}, "DIO wild-type mice": {"system": "DIO wild-type mice", "test": "body composition (ECHO MRI), DIO wild-type mice", "assay_type": "in vivo, C57BL/6 mouse", "conditions": "16 days daily sc, GIP-085 300 nmol/kg, semaglutide 3 nmol/kg, mean ± SEM, n=5-6 per group", "experimental": "(§4) C57BL/6 wild-type (n = 23), GLP-1R KO (n = 24), and GIPR KO mice (n = 24) received daily subcutaneous administration of GIP-085 (300 nmol/kg), semaglutide (3 nmol/kg), GIP-085/semaglutide combo, or vehicle for 16 days. Food intake and body weight were manually measured daily. The average body weight at the start of the experiment was 43.7 ± 0.4 g for the wild-type group, 39.0 ± 0.6 g for the GLP-1R KO group, and 36.5 ± 0.4 g for the GIPR KO group. Body composition of mice was determined using quantitative nuclear magnetic resonance analysis (ECHO MRI, 3-1 Composition Analyzer; Echo Medical Systems). At the end of the experiment, the animals were euthanized by CO2."}, "GLP-1R KO DIO mice": {"system": "GLP-1R KO DIO mice", "test": "body composition (ECHO MRI), GLP-1R KO DIO mice", "assay_type": "in vivo, mouse", "conditions": "n=6 per group", "experimental": "as §4"}, "rats": {"system": "rats", "test": "food and kaolin consumption and body weight in rats (semaglutide, tirzepatide)", "assay_type": "in vivo, Sprague-Dawley rat", "description": "Adult male Sprague-Dawley rats (Charles River) weighing ~250 to 270 g (n = 45) at arrival were housed under a 12-hour/12-hour light/dark cycle in a temperature-controlled and humidity-controlled vivarium. Rats were individually housed in hanging wire-bottom cage with ad libitum access to chow diet (Purina Lab Diet 5001) or, when noted, to high-fat/high-sugar diet (60% fat diet, 12492, Research Diets) and tap water and had ad libitum access to kaolin pellets (Research Diets, K50001). Rats were exposed to kaolin for at least 5 days prior to measuring kaolin consumption in pica testing. Kaolin intake and food consumption were measured simultaneously as the presence of kaolin in the cage, and its subsequent ingestion, has usually negligible effects on the hypophagic and body weight–lowering effects of the treatments.\nas §2\nIn two separate cohorts of rats (n = 10 per group, body weight ~ 460 ± 9 g), food consumption, kaolin intake, and body weight were measured after an intraperitoneal administration of vehicle, semaglutide (10 and 100 nmol/kg), or tirzepatide (10 and 100 nmol/kg), respectively. Food and kaolin intake were measured at 3, 6, 24, and 48 hours postinjection, and body weight was measured at 0, 24, and 48 hours. For each drug, a within-subject paradigm was used, with each round of injections separated by 7 days."}, "shrews [1]": {"system": "shrews", "test": "emesis, semaglutide dose-response, shrews", "assay_type": "in vivo, Suncus murinus", "conditions": "for animals exhibiting emesis / emesis, dose dependence: 120 min; for animals exhibiting emesis: n = 9; for latency to first emetic episode: average of shrews that exhibited emesis, ± SEM; for emesis, dose dependence: 10, 50, 100 and 500 nmol/kg ip", "description": "(§5) Adult male shrews (S. murinus) weighing ~50 to 80 g (n = 84 total) were bred and maintained in the De Jonghe Lab (University of Pennsylvania). These animals were offspring from a colony previously maintained at the University of Pittsburgh Cancer Institute (C. Horn); a Taiwanese strain was derived from stock originally supplied by the Chinese University of Hong Kong. Shrews were singly housed in plastic cages (37.3 cm by 23.4 cm by 14 cm, Innovive) under a 12-hour/12-hour light/dark cycle in a temperature-controlled and humidity-controlled environment. Animal were fed ad libitum with a mixture of feline (75%, Laboratory Feline Diet 5003, Lab Diet) and mink food (25%, High Density Ferret Diet 5LI4, Lab Diet) and had ad libitum access to tap water except where noted.\nTo assess the emetogenic effects of semaglutide treatment, shrews (n = 9) were habituated to intraperitoneal injections and to clear plastic observation chambers (23.5 cm by 15.25 cm by 17.8 cm) for two consecutive days prior to experimentation. The animals were injected intraperitoneally with semaglutide (10, 50, 100, and 500 nmol/kg) or vehicle and then video recorded (Vixia HF-R62, Canon) for 120 min. After 120 min, the animals were returned to their cages. Treatment rounds were conducted within-subject and separated by 7 days. Analysis of emetic episodes was measured by a trained observer blinded to treatment groups. Emetic episodes were characterized by strong rhythmic abdominal contractions associated with either oral expulsion from the GI tract (i.e., vomiting) or without the passage of materials (i.e., retching). Latency to the first emetic episode, the total number of emetic episodes, and the number of emetic episodes per minute were quantified."}, "shrews [2]": {"system": "shrews", "test": "food intake and body weight, semaglutide, GIP-085 and combo, shrews", "assay_type": "in vivo, Suncus murinus", "conditions": "semaglutide alone, 500 nmol/kg ip; n = 8", "description": "as §5\nFirst, we compared the effects of semaglutide (500 nmol/kg), GIP-085 (300 nmol/kg), GIP-085/semaglutide, or vehicle on food intake and body weight in the same animals (n = 8, ~54 ± 2 g) using in a within-subject, counterbalanced design. This experiment was conducted as described above. Each treatment was 7 days apart."}, "[3]": {"conditions": "100 nmol/kg ip, n = 10 to 20 per group"}, "[4]": {"conditions": "10 and 100 nmol/kg ip, n = 10 per group, vs vehicle"}}, "data": [{"substance": "semaglutide", "values": [{"measurement": "anorectic effects / food intake", "setting": "DIO GLP-1R KO mice", "value": "absent"}, {"measurement": "body weight", "setting": "DIO GLP-1R KO mice", "value": "absent"}, {"measurement": "cross-reactivity at the GIPR", "setting": "DIO GIPR KO mice", "value": "lack of cross-reactivity"}, {"measurement": "total fat mass at the end of the experiment", "setting": "DIO wild-type mice; Veh: 17.9±0.5g", "value": "12.2 ± 0.8", "unit": "g"}, {"measurement": "total lean mass at the end of the experiment", "setting": "DIO wild-type mice; Veh: 24.8±0.6g", "value": "24.6 ± 0.7", "unit": "g"}, {"measurement": "total fat mass at the end of the experiment", "setting": "GLP-1R KO DIO mice; 16 days daily sc, GIP-085 300 nmol/kg, semaglutide 3 nmol/kg, mean ± SEM, Veh: 17.3±0.8g", "value": "15.5 ± 0.9", "unit": "g"}, {"measurement": "total lean mass at the end of the experiment", "setting": "GLP-1R KO DIO mice; 16 days daily sc, GIP-085 300 nmol/kg, semaglutide 3 nmol/kg, mean ± SEM, Veh: 24.1±0.6g", "value": "23.9 ± 0.7", "unit": "g"}, {"measurement": "body composition changes", "setting": "GLP-1R KO DIO mice; semaglutide 3 nmol/kg and dual semaglutide/GIP-085, 16 days", "value": "No changes"}, {"measurement": "kaolin intake", "setting": "rats; 100 nmol/kg ip, n = 10 per group, vs vehicle", "value": "causes significant malaise (i.e., kaolin intake)"}, {"measurement": "hypophagic responses, semaglutide vs tirzepatide", "setting": "rats; [3]", "value": "comparable hypophagic responses"}, {"measurement": "kaolin consumption, semaglutide vs tirzepatide", "setting": "rats; [3]", "value": "significantly higher than that caused by tirzepatide"}, {"measurement": "kaolin consumption, semaglutide vs tirzepatide", "setting": "rats; 100 nmol/kg ip, n = 10 to 20 per group, listed as Semaglutide", "value": "induces higher kaolin consumption than tirzepatide treatment"}, {"measurement": "body weight", "setting": "rats; [4]", "value": "causes body weight loss in a dose-dependent manner"}, {"measurement": "food intake", "setting": "rats; [4]", "value": "dose-dependently suppresses food intake"}, {"measurement": "animals exhibiting emesis", "setting": "shrews [1]; 100 nmol/kg ip", "value": "Twenty-two"}, {"measurement": "latency to first emetic episode", "setting": "shrews [1]; 100 nmol/kg ip", "value": "63 ± 14", "unit": "min"}, {"measurement": "animals exhibiting emesis", "setting": "shrews [1]; 500 nmol/kg ip", "value": 67, "unit": "%"}, {"measurement": "latency to first emetic episode", "setting": "shrews [1]; 500 nmol/kg ip", "value": "58 ± 6", "unit": "min"}, {"measurement": "emesis, dose dependence", "setting": "shrews [1]", "value": "dose-dependently induced emesis"}, {"measurement": "emesis, dose dependence", "setting": "shrews [1]; listed as Semaglutide", "value": "causes emesis in a dose-related manner"}, {"measurement": "body weight", "setting": "shrews [2]", "value": "body weight loss"}, {"measurement": "food intake", "setting": "shrews [2]", "value": "induced anorexia"}]}]}
